We go through 3 molecules from patent publication US20240158406A1, “PIPERAZINE DERIVATIVE AND USE THEREOF IN MEDICINE” (CHENGDU BAIYU PHARMACEUTICAL CO., LTD., priority 2021, published 2024).

Bounds are passed on as bounds.

The IC50 is the concentration that inhibits the measured activity by half. The half-life is the time needed for the level to fall by half in the phase considered. Higher therefore signals slow loss. For orientation: efflux ratio means the permeability from basolateral to apical divided by that in the opposite direction, in the common usage. The Papp A→B is the apparent permeability from the apical to the basolateral side of a cell layer. A higher Papp A→B goes with ready permeation. By Papp B→A is commonly meant how fast a substance crosses the layer from the basolateral side.

For one data set, the target named is PARP7 (Homo sapiens (Human), UniProt Q7Z3E1). The experiment in a line: Enzymatic biochemical assay of PARP (chemiluminescence detection kit), PARP7. The conditions noted are these: read-out: Inhibitory activity against PAPR7 (IC50). Here is the method:
(§1) This assay adopted PARP1, TNKS1, TNKS2, PARP7 and PARP14 chemiluminescence detection kits (BPS, Cat No. 80551/80552/80573/80578/79729/80568) for enzymatic biochemical assay of PARP. The specific scheme was as follows: the 1× histone mixture was added to a 96-well plate at 50 μL per well, and the plate was incubated overnight at 4° C. The next day, after the plate was washed with PBST, 200 μL of blocking buffer per well was added, and the plate was incubated for 90 min. After the plate was washed with PBST again, 5 μL of inhibitor, 20 μL of 1×PARP buffer and 25 μL of […] were added to each well, and the plate was incubated at room temperature for 30 min. After the plate was washed with PBST, 100 μL of Elisa ECL substrate A and B mixture was added to each well, chemiluminescence value was immediately read using a plate reader, and IC50 values were calculated.

Another data set addresses PARP1 (Homo sapiens (Human), UniProt P09874). The experiment in a line: Enzymatic biochemical assay of PARP (chemiluminescence detection kit), PARP1. On the procedure:
as §1

For another data set, the target named is TNKS1 (Homo sapiens (Human), UniProt O95271). Kind of data set: Enzymatic biochemical assay of PARP (chemiluminescence detection kit), TNKS1. On the procedure: as §1
The target in the next data set is TNKS2 (Homo sapiens (Human), UniProt Q9H2K2). The experiment in a line: Enzymatic biochemical assay of PARP (chemiluminescence detection kit), TNKS2. Here is the method: as §1
Chain of TNKS2 (Q9H2K2 whole entry): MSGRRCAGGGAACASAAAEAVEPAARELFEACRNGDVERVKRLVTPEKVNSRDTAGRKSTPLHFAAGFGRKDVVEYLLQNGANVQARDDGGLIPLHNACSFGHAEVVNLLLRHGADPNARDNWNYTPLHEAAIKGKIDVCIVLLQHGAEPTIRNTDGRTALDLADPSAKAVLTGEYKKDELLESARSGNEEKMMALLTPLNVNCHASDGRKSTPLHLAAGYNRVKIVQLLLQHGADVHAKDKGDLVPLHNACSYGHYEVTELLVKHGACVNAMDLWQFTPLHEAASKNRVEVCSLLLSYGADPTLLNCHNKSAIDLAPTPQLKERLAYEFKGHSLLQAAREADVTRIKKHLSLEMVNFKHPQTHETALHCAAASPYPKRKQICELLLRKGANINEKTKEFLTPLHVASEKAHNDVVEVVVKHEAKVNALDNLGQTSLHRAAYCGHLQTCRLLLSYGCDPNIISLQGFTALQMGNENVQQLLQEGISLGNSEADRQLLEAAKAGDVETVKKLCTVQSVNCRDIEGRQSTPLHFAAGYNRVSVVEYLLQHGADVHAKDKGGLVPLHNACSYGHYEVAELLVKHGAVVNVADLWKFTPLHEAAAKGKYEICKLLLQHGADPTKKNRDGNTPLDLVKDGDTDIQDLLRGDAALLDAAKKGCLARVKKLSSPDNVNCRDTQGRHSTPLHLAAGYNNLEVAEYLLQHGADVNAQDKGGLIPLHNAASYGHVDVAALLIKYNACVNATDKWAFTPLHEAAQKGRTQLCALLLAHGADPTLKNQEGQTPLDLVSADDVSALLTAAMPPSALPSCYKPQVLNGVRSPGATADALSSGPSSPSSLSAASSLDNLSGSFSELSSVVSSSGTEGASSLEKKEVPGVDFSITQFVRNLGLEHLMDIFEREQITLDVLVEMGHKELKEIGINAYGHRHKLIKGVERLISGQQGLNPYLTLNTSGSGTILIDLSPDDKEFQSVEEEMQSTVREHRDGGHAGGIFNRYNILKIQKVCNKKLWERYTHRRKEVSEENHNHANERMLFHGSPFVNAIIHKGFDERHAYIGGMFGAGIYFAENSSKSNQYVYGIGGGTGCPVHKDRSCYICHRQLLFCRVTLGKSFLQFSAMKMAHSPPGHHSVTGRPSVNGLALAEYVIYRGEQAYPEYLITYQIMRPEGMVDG
Another data set concerns the target PARP14 (Homo sapiens (Human), UniProt Q460N5). The experiment in a line: Enzymatic biochemical assay of PARP (chemiluminescence detection kit), PARP14. On the procedure:
as §1

Another data set concerns NCI-H1373 cells. Kind of data set: NCI-H1373 cell proliferation inhibition assay. The conditions noted are these: Homo sapiens, NCI-H1373, 144 h; 6 days of incubation, Cell Titer Blue. In kind it is cell-based. Here is the method: Human lung adenocarcinoma cells NC-H1373 (ATCC, CRL-5866M) were cultured in a cell incubator at 37° C. and 5% CO2 using RPMI-1640 medium containing 10% FBS and 1% […]. The cells in the logarithmic growth phase were counted by digestion and inoculated in a 96-well plate at 1500 NCI-H1373 per well, and the plate was placed in an incubator overnight. The next day, test compounds were formulated in 10 mM stock solution by using DMSO and 3-fold diluted in gradient from a maximum concentration of 10 μM by using RPMI-1640 medium, and 10 gradient concentrations were set with 2 parallel wells per concentration gradient. After 6 days of incubation, 100 μL of Cell Titer Blue working solution was added to each well and the chemiluminescence value was read in a microplate reader. IC50 was calculated using GraphPad Prism7.0 software.

The nature of data set [1]: Metabolic stability in liver microsome. Type of data set: in vitro ADME. The conditions noted are these: 0.5 mg/mL CD1 mouse liver microsome, 0.5 μM test compound, NADPH and UDPGA, 37° C. Here is the method:
0.5 mg/mL CD1 mouse liver microsome solution, 0.5 μM test compound, 1.0 mM reduced nicotinamide adenine dinucleotide phosphate (NADPH), and 1.0 mM uridine diphosphate-A-glucuronic acid (UDPGA) were added to the incubation plate and mixed, and the plate was incubated at 37° C. for 0, 30, 60, 120 min separately. The positive control group was set as 0.5 μM CYP3A4 probe substrate-testosterone and 0.5 μM UGT probe substrate-7-hydroxycoumarin incubated with microsomes for 0 and 120 min in the presence of NADPH and UDPGA; the negative control group (NC) was set as the test substance incubated with microsomes for 0 and 120 min without any coenzyme. After the reaction was terminated by adding pre-cooled methanol at each termination time, the reaction mixture was centrifuged at 4000 rpm for 10 min, the supernatant was taken and the remaining amount of the parent drug in the sample was measured by LC-MS/MS, the results of which are shown in Table 4.

The test system of another data set is MDCKII-MDR1 cells. Kind of data set: MDCKII-MDR1 cell permeability assay. In kind it is in vitro ADME. The conditions noted are these: 1 μM test compound, 2 h. Here is the method: (§2) 50 μL of MDCKII-MDR1 cell suspension with a density of 1.56×10^6 cells/mL was seeded into a Transwell well of a 96-well plate, and the plate was cultured in a cell incubator at 37° C. in 5% CO2. […] The medium in Transwell was discarded, and HBSS equilibration solution was added and incubated at 37° C. for 30 min. Subsequently, an apical to basolateral drug transport rate assay was performed by adding 1 μM test compound solution to the Transwell AB side and a blank equilibration solution to the BL side. When the basolateral to apical drug transport rate assay was performed, the operation steps were reversed. Subsequently, the cells were placed in an incubator for 2 h. After the incubation, samples were taken from the basolateral and apical respectively, and after centrifugation, the supernatant was subjected to LC-MS/MS analysis, and the apparent permeability coefficient (Papp) was calculated, the results of which are shown in Table 5.

In another data set the test system is MDR1. Kind of data set: MDCKII-MDR1 cell permeability assay. The conditions noted are these: dog, MDCK-MDR1, 1 μM test compound. Type of data set: in vitro ADME. Here is the method:
as §2

Chain of PARP7 (Q7Z3E1 whole entry): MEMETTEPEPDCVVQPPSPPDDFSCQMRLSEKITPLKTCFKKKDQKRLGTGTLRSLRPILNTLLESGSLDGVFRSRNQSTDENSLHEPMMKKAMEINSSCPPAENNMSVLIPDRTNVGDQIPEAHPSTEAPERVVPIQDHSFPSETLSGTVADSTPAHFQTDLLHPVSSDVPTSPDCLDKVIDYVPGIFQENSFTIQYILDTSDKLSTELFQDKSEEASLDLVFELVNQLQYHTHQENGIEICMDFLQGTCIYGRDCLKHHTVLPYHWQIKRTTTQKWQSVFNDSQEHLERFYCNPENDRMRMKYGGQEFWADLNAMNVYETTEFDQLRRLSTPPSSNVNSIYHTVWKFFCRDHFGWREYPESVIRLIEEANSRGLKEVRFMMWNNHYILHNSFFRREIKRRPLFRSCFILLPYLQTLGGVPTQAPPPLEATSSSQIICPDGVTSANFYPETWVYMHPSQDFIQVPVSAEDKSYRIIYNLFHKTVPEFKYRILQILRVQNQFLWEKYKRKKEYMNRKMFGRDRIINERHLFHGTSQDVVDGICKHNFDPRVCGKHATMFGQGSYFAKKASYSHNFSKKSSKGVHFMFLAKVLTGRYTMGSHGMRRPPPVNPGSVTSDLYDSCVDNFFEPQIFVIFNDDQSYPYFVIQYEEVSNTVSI
Chain of PARP14 (Q460N5 whole entry): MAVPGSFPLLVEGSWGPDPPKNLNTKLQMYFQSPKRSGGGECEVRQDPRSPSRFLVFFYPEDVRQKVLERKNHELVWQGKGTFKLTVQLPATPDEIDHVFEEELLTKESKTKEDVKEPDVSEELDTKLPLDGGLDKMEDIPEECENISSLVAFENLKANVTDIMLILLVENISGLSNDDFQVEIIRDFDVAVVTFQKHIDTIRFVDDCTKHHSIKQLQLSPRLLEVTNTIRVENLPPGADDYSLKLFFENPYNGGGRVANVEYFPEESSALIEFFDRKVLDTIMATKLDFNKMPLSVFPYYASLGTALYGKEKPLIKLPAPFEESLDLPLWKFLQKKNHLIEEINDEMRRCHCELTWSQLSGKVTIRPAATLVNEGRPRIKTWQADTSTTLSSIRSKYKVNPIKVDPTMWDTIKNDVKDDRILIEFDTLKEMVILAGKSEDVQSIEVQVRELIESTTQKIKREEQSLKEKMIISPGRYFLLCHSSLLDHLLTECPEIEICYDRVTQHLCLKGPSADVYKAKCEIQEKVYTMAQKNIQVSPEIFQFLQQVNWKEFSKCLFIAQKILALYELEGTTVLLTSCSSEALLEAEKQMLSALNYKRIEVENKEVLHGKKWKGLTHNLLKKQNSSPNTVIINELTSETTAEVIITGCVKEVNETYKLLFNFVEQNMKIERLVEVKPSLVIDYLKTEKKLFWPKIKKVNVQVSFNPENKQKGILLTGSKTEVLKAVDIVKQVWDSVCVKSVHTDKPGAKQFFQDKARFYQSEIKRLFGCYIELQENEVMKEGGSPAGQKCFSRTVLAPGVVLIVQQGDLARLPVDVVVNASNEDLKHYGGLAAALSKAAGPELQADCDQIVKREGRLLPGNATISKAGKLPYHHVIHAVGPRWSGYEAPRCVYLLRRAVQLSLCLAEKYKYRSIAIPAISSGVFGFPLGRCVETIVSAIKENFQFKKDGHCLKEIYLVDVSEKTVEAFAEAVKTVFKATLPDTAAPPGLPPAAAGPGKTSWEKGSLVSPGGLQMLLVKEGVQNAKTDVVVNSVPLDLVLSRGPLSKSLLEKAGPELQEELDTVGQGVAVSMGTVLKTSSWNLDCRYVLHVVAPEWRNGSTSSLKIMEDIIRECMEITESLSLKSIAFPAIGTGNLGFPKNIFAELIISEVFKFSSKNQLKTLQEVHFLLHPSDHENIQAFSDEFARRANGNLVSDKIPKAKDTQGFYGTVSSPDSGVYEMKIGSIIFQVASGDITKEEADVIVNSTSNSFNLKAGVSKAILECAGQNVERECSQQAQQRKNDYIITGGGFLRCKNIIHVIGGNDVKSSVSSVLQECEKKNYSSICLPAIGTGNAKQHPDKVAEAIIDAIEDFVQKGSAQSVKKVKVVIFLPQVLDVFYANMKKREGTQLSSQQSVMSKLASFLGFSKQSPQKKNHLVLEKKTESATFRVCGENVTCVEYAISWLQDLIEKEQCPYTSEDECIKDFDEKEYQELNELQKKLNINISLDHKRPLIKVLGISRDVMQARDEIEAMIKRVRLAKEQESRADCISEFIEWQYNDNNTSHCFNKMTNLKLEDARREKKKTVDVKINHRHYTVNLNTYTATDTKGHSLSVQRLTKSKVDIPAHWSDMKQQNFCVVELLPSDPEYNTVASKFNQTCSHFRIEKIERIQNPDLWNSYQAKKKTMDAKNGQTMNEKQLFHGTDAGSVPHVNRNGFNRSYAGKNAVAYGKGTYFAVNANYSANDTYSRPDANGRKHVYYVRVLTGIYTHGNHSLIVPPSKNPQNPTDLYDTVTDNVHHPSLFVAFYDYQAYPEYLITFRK
Chain of PARP1 (P09874 whole entry): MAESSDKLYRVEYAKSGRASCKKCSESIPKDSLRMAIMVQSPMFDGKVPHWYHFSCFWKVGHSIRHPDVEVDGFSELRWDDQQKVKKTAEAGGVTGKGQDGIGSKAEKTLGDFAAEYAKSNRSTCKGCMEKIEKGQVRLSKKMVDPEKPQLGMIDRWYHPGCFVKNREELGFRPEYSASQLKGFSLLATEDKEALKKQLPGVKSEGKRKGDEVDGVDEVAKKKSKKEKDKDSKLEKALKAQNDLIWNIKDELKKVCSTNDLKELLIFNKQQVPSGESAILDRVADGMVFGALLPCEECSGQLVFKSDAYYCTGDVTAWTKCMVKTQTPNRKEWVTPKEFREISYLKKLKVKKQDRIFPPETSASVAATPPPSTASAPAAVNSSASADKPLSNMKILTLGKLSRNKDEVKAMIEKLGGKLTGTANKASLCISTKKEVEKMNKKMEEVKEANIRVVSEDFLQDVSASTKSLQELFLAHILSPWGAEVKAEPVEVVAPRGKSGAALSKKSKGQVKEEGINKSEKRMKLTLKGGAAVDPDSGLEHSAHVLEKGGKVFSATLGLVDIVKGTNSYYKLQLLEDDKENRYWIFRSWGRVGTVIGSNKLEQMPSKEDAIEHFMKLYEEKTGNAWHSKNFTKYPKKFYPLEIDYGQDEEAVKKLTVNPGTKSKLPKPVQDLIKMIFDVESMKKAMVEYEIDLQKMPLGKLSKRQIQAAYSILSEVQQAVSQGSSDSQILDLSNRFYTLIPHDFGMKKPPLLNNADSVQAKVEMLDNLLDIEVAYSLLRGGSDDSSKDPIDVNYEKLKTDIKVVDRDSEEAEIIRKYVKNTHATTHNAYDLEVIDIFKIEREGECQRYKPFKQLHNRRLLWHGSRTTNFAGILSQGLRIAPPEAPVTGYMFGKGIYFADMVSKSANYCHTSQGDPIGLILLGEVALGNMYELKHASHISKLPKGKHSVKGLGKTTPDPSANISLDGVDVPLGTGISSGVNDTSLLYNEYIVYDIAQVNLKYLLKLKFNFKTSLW

For `C[C@@H](COCc1cc2n(n1)CCN(c1ncc(C(F)(F)F)cn1)C2)Nc1cn[nH]c(=O)c1C(F)(F)F` [Compound 1], the IC50 on PARP7 is 10 to 50 nM; against PARP1, more than 1000 nM; against TNKS1 it was more than 10 µM; against TNKS2, more than 10 µM; on PARP14 it was more than 10 µM; in the data set on NCI-H1373 cells, less than 50 nM. This molecule also came in with a half-life at 0.5 μM in [1] (liver microsomes) of more than 30 min.
In the case of `C[C@@H](COCCC(=O)N1CCN(c2ncc(C(F)(F)F)cn2)CC1)Nc1cn[nH]c(=O)c1C(F)(F)F` [Comparative example, reference compound], the “T1/2” value in data set [1] was less than 30 min. Moreover, in the data set with MDCKII-MDR1 cells (apical to basolateral), the “Papp (A-B)” value is given as 5.16 10-6, cm/s. Also, the “Papp (B-A)” value with MDCKII-MDR1 cells (basolateral to apical) was 49.43 10-6, cm/s.
As for `C[C@@H](COCc1nn2c(c1Cl)CN(c1ncc(C(F)(F)F)cn1)CC2)Nc1cn[nH]c(=O)c1C(F)(F)F` [Compound 13, (S)-5-((1-((3-chloro-5-(5-(trifluoromethyl)pyrimidin-2-yl)-4,5,6,7-tetrahydropyrazolo[1,5-a]pyrazin-2-yl)methoxy)propan-2-yl)amino)-4-(trifluoromethyl)pyridazin-3(2H)-one], the IC50 on PARP7 was 10 to 50 nM; in the data set with NCI-H1373 cells, less than 50 nM. The efflux ratio at 2 h, 1 μM with MDR1 turned out to be 2.28. The molecule further had a Papp A→B at 2 h, 1 μM in the data set on MDR1 (apical to basolateral) of 6.67 ×10⁻⁶ cm/s. Moreover, the Papp B→A at 2 h, 1 μM with MDR1 (basolateral to apical) is 14.8 ×10⁻⁶ cm/s.
